{"source": "patent US11459315B2", "about": "“Modulators of methyl modifying enzymes, compositions and uses thereof” (Constellation Pharmaceuticals, Inc., priority 2017, dated 2022)"}
{"biological_target": "PRC2 containing wt EZH2 (Homo sapiens (Human), UniProt Q15910)", "sequence (Q15910 whole entry)": "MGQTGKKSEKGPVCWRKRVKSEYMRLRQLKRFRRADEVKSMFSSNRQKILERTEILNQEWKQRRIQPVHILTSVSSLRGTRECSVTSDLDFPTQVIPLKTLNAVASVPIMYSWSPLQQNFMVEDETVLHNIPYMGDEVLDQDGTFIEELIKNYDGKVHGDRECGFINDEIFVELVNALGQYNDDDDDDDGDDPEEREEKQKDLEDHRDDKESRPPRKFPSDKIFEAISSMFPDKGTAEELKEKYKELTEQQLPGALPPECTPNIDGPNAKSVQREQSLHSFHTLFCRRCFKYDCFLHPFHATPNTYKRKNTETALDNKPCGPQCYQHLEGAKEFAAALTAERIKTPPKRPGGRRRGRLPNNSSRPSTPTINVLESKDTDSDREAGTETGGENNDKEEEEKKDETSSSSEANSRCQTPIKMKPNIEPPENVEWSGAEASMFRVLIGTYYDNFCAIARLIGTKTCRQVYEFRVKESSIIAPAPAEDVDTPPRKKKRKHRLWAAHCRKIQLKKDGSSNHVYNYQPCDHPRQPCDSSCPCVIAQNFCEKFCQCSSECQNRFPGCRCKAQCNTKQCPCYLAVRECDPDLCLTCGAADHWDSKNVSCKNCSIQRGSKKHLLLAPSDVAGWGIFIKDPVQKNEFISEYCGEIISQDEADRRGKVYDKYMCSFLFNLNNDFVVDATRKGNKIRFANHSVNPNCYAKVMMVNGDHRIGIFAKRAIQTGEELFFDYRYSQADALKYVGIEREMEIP", "sequence (O75530 whole entry partner)": "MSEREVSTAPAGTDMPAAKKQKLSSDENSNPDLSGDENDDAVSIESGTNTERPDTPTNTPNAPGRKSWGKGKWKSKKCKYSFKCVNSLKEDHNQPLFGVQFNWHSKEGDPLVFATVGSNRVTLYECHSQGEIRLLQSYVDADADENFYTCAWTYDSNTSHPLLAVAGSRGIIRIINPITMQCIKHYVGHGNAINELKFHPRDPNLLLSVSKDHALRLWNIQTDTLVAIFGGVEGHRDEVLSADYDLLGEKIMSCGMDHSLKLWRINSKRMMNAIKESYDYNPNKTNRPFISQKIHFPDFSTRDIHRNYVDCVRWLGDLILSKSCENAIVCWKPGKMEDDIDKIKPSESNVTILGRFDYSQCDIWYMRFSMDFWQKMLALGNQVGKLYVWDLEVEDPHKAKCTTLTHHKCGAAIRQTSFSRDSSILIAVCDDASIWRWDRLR", "sequence (Q15022 whole entry partner)": "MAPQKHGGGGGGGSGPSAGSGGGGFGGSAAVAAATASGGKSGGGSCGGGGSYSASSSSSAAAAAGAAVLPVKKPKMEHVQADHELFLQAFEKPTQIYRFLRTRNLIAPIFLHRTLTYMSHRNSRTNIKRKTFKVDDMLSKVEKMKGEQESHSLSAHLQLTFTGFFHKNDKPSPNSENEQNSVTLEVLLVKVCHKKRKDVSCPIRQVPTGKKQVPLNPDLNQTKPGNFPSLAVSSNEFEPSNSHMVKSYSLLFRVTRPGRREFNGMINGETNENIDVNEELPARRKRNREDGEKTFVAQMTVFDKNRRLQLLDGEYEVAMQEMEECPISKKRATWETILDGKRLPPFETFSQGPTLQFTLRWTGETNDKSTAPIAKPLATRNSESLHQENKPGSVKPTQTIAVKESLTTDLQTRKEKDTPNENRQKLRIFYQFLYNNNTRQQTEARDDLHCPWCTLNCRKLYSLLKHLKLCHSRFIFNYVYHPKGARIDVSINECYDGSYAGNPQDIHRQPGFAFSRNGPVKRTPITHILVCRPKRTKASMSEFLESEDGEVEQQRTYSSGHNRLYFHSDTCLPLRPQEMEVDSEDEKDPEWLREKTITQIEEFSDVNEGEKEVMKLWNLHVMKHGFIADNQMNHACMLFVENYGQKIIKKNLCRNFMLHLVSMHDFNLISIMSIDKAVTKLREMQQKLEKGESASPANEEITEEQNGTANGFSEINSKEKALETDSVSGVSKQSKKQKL", "sequence (Q09028 whole entry partner)": "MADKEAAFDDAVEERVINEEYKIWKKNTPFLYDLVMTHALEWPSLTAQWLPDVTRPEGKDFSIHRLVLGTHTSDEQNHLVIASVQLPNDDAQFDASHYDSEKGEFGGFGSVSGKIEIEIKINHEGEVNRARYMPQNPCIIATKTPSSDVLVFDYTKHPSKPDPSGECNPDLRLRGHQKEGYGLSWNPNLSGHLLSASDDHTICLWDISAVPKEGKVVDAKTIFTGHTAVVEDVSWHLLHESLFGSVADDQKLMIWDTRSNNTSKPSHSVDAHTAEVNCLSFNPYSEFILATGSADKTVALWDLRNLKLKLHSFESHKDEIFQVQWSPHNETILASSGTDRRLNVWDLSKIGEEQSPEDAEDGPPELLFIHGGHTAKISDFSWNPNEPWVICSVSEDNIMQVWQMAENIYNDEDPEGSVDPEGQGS", "sequence (Q6ZN18 whole entry partner)": "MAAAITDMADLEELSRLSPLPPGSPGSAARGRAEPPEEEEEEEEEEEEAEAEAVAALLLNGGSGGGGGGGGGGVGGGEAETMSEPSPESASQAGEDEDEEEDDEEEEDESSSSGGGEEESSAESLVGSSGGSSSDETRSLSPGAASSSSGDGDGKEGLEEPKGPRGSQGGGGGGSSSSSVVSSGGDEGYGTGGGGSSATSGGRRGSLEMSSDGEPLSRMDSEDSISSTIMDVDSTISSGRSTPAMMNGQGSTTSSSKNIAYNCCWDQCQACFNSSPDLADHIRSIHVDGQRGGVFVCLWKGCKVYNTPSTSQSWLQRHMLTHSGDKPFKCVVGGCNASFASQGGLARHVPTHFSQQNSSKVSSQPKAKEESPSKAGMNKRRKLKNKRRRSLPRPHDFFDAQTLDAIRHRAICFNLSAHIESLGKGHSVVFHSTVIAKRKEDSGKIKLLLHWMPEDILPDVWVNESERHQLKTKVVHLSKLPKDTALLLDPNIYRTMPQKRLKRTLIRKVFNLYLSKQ", "experiment": "EZH2 biochemical assay (IC50), 3H-SAM incorporation into biotinylated H3 peptide", "details": "30 pM PRC2 containing wt EZH2; 3-5 h pre-incubation; read-out: EZH2 (IC50)", "experimental": "(§1) EZH2 biochemical assay (IC50): Compound potencies were assessed through incorporation of ^3H-SAM into a biotinylated H3 peptide. Specifically, 30 pM PRC2 containing wt EZH2 (pentameric complex prepared in-house) was pre-incubated with 450 nM SAM, 450 nM ^3H-SAM, 2 μM H3K27me3 activating peptide (H2N-[…](Kme3)[…]-amide) and compounds (as 10 point duplicate dose response titrations in DMSO, final assay 0.8% DMSO (v/v)) for 3-5 h in 50 mM Tris (pH 8.5), 1 mM DTT, 0.07 mM Brij-35, 0.1% BSA, and 0.8% DMSO in a total volume of 12.5 μl. Reaction was initiated with biotinylated H3 substrate peptide (H2N-[…](Kme1)[…]-NTPEGBiot) as a 2 μM stock in 12.5 μl of buffer and allowed to react at room temperature for 18-22 h. Quenching was accomplished by addition of 20 μl of STOP solution (50 mM Tris (pH 8.5), 200 mM EDTA, 2 mM SAH). 35 μl of the quenched solution was transferred to streptavidin coated FlashPlates (PerkinElmer), incubated 1-2 h, washed, and read in a TopCount Reader (PerkinElmer). IC50s were calculated in Genedata Screener using non-linear least square four parameter fits, where the four parameters were IC50, Hill slope, pre-transitional baseline (0% INH), and post-transitional baseline (100% INH).\n(§2) IC50 values are reported as follows: “A” indicates an IC50 value of less than 0.5 nM; “B” indicates an IC50 value of 0.5 nM to 5 nM; “C” indicates an IC50 value of greater than 5 nM for each enzyme; and “ND” is not determined.", "units": {"IC50": "nM"}}
{"compound": "CSc1cc(C)[nH]c(=O)c1CNC(=O)c1c(C)n([C@H](C)C2OCC(NC3(C)COC3)CO2)c2ccccc12", "note": "(single isomer, unassigned) [6 (isomer 1)]", "IC50": "< 0.5"}
{"compound": "CSc1cc(C)[nH]c(=O)c1CNC(=O)c1c(C)n([C@H](C)C2OCC(NC3(C)COC3)CO2)c2ccccc12", "note": "(single isomer, unassigned) [6 (isomer 2)]", "IC50": "0.5 to 5"}
{"compound": "CSc1cc(C)[nH]c(=O)c1CNC(=O)c1c(C)n([C@H](C)C2OCC(N(C)C)CO2)c2ccccc12", "note": "(single isomer, unassigned) [7 (isomer 1)]", "IC50": "0.5 to 5"}
{"compound": "CSc1cc(C)[nH]c(=O)c1CNC(=O)c1c(C)n([C@H](C)C2OCC(N(C)C)CO2)c2ccccc12", "note": "(single isomer, unassigned) [7 (isomer 2)]", "IC50": "< 0.5"}
{"compound": "COCCN(C)C1COC([C@@H](C)n2c(C)c(C(=O)NCc3c(SC)cc(C)[nH]c3=O)c3ccccc32)OC1", "note": "(single isomer, unassigned) [16 (isomer 1)]", "IC50": "< 0.5"}
{"compound": "COCCN(C)C1COC([C@@H](C)n2c(C)c(C(=O)NCc3c(SC)cc(C)[nH]c3=O)c3ccccc32)OC1", "note": "(single isomer, unassigned) [16 (isomer 2)]", "IC50": "> 5"}
{"compound": "CSc1cc(C)[nH]c(=O)c1CNC(=O)c1c(C)n([C@H](C)C2CCC(N3CC(OC(F)F)C3)CC2)c2ccccc12", "note": "(single isomer, unassigned) [20 (isomer 1)]", "IC50": "< 0.5"}
{"compound": "CSc1cc(C)[nH]c(=O)c1CNC(=O)c1c(C)n([C@H](C)C2CCC(N3CC(OC(F)F)C3)CC2)c2ccccc12", "note": "(single isomer, unassigned) [20 (isomer 2)]", "IC50": "< 0.5"}
{"compound": "CSc1cc(C)[nH]c(=O)c1CNC(=O)c1c(C)n([C@H](C)C2CCC(N3CC(OC(F)(F)F)C3)CC2)c2ccccc12", "note": "(single isomer, unassigned) [21 (isomer 1)]", "IC50": "< 0.5"}
{"compound": "CSc1cc(C)[nH]c(=O)c1CNC(=O)c1c(C)n([C@H](C)C2CCC(N3CC(OC(F)(F)F)C3)CC2)c2ccccc12", "note": "(single isomer, unassigned) [21 (isomer 2)]", "IC50": "< 0.5"}
{"compound": "CSc1cc(C)[nH]c(=O)c1CNC(=O)c1c(C)n([C@H](C)[C@H]2CC[C@H](N3CC(OC(F)F)C3)CC2)c2ncccc12", "note": "(single isomer, unassigned) [27 (isomer 1)]", "IC50": "< 0.5"}
{"compound": "CSc1cc(C)[nH]c(=O)c1CNC(=O)c1c(C)n([C@H](C)C2CCC(N3CC(OC4CC4)C3)CC2)c2ncc(F)cc12", "note": "(single isomer, unassigned) [28 (isomer 1)]", "IC50": "< 0.5"}
{"compound": "CSc1cc(C)[nH]c(=O)c1CNC(=O)c1c(C)n([C@H](C)C2CCC(N3CC(OC4CC4)C3)CC2)c2ncc(F)cc12", "note": "(single isomer, unassigned) [28 (isomer 2)]", "IC50": "< 0.5"}
{"biological_target": "PRC2 containing wt EZH2 (Homo sapiens (Human), UniProt Q15910)", "experiment": "EZH2 biochemical assay (IC50), 3H-SAM incorporation into biotinylated H3 peptide", "details": "EZH2 (IC50), 30 pM PRC2 containing wt EZH2; 3-5 h pre-incubation", "experimental": "as §1, §2", "units": {"IC50": "nM"}}
{"compound": "CSc1cc(C)[nH]c(=O)c1CNC(=O)c1c(C)n([C@H](C)C2COC2)c2ccccc12", "note": "(single isomer, unassigned) [14 (isomer 1)]", "IC50": "< 0.5"}
{"compound": "CSc1cc(C)[nH]c(=O)c1CNC(=O)c1c(C)n([C@@H](C)C2COC2)c2ccccc12", "note": "(single isomer, unassigned) [14 (isomer 2)]", "IC50": "> 5"}
{"tested_on": "H3K27me3 mark in HeLa cells (EZH2)", "experiment": "H3K27me3 Alpha Hela Assay (AlphaLISA)", "format": "cell-based", "details": "HeLa cells, 72 hrs; read-out: EZH2 Cell H3K27me3 Alpha HeLa (EC50 K27me3)", "experimental": "(§3) H3K27me3 Alpha Hela Assay (AlphaLISA). Ten different doses of each test compound (in a series of 3-fold dilutions) were plated in duplicate 384-well tissue culture treated plates (Catalog #6007680; Perkin Elmer, Waltham, Mass.). Hela cells grown in culture were trypsinized and counted using a Countess® cell counter (Catalog #C10281; Life Technologies, Grand Island, N.Y.). Cell were diluted to 67,000 cells per mL in 10% DMEM (Catalog #10569-010 Life Technologies, Grand Island, N.Y.) and 15 μL (1,000 cells) were plated into each well using the Biotek MicroFlo™ Select Dispenser (BioTek Instruments, Inc. Vermont, USA),) of the 384-well plate. Plates were incubated at 37° C./5% CO2 for 72 hrs. One of the duplicate plates was processed for HeLa assay and the other for viability.\n(§4) 5 μL of Cell-Histone Lysis buffer (1×) (Catalog #AL009F1 Perkin Elmer; Waltham, Mass.) per well was added to the plate processed for AlphaLISA and the plate was incubated at RT for 30 minutes on a plate shaker with low speed (Model #4625-Q Thermo Scientific; Waltham, Mass.). Then, 10 μL per well Histone Extraction buffer (catalog #AL009F2; Perkin Elmer; Waltham, Mass.) was added and the plate further incubated at RT for 20 min on plate shaker with low speed. Next, 10 μL of 5× mix of anti-K27me3 acceptor beads plus Biotinylated anti-Histone H3 (C-ter) Antibody (diluted to 3 nM final) (Catalog #AL118 Perkin Elmer; Waltham, Mass.) was added in each well. Dilution of the acceptor beads and anti-Histone H3 was done in 1× Histone Detection buffer (Catalog #AL009F3 Perkin Elmer; Waltham, Mass.) which was produced by diluting the 10× stock provided. The plate was sealed with an aluminum plate sealer and incubated at 23° C. for 60 min. Next, 10 μL 5× solution of Streptavidin Donor beads were added (Catalog #6760002 Perkin Elmer; Waltham, Mass.) (20 μg/mL final in 1× Histone Detection Buffer), =plate was sealed with Aluminum plate sealer and incubated at 23° C. for 30 min. The plates were then read using an EnVision-Alpha Reader (model #2104 Perkin Elmer; Waltham, Mass.).\n(§5) Data from both assays was analyzed using Genedata (Basel, Switzerland). Data files were imported to Genedata and assay conditions were specified. A unique Analysis ID was created and the data files analysed to measure dose-dependent inhibition of H3K27me3 mark and cell viability respectively. Readout of DMSO wells were used to normalize the data. Resulting curves were fitted using Smart fit application (Genedata; Basel, Switzerland). The data was checked for quality, validated and integrated in excel format using Stardrop (Optibruim, Cambridge, UK).\n(§6) EC50 values are reported as follows: “A” indicates an EC50 value of less than 10 nM; “B” indicates an EC50 value of 10 nM to 100 nM; “C” indicates an EC50 value of greater than 100 nM; and “ND” is not determined.", "units": {"EC50": "nM"}}
{"compound": "CSc1cc(C)[nH]c(=O)c1CNC(=O)c1c(C)n([C@H](C)C2OCC(NC3(C)COC3)CO2)c2ccccc12", "note": "(single isomer, unassigned) [6 (isomer 1)]", "EC50": "< 10"}
{"compound": "CSc1cc(C)[nH]c(=O)c1CNC(=O)c1c(C)n([C@H](C)C2OCC(NC3(C)COC3)CO2)c2ccccc12", "note": "(single isomer, unassigned) [6 (isomer 2)]", "EC50": "> 100"}
{"compound": "CSc1cc(C)[nH]c(=O)c1CNC(=O)c1c(C)n([C@H](C)C2OCC(N(C)C)CO2)c2ccccc12", "note": "(single isomer, unassigned) [7 (isomer 1)]", "EC50": "> 100"}
{"compound": "CSc1cc(C)[nH]c(=O)c1CNC(=O)c1c(C)n([C@H](C)C2OCC(N(C)C)CO2)c2ccccc12", "note": "(single isomer, unassigned) [7 (isomer 2)]", "EC50": "< 10"}
{"compound": "COCCN(C)C1COC([C@@H](C)n2c(C)c(C(=O)NCc3c(SC)cc(C)[nH]c3=O)c3ccccc32)OC1", "note": "(single isomer, unassigned) [16 (isomer 1)]", "EC50": "< 10"}
{"compound": "COCCN(C)C1COC([C@@H](C)n2c(C)c(C(=O)NCc3c(SC)cc(C)[nH]c3=O)c3ccccc32)OC1", "note": "(single isomer, unassigned) [16 (isomer 2)]", "EC50": "> 100"}
{"compound": "CSc1cc(C)[nH]c(=O)c1CNC(=O)c1c(C)n([C@H](C)C2CCC(N3CC(OC(F)F)C3)CC2)c2ccccc12", "note": "(single isomer, unassigned) [20 (isomer 2)]", "EC50": "10 to 100"}
{"compound": "CSc1cc(C)[nH]c(=O)c1CNC(=O)c1c(C)n([C@H](C)C2CCC(N3CC(OC(F)(F)F)C3)CC2)c2ccccc12", "note": "(single isomer, unassigned) [21 (isomer 2)]", "EC50": "10 to 100"}
{"compound": "CSc1cc(C)[nH]c(=O)c1CNC(=O)c1c(C)n([C@H](C)C2CCC(N3CC(OC4CC4)C3)CC2)c2ncc(F)cc12", "note": "(single isomer, unassigned) [28 (isomer 2)]", "EC50": "10 to 100"}
{"tested_on": "H3K27me3 mark in HeLa cells (EZH2)", "experiment": "H3K27me3 Alpha Hela Assay (AlphaLISA)", "format": "cell-based", "details": "Homo sapiens, HeLa, 72 h, HeLa cells, 72 hrs; read-out: EZH2 Cell H3K27me3 Alpha HeLa (EC50 K27me3)", "experimental": "as §3, §4, §5, §6", "units": {"EC50": "nM"}}
{"compound": "CSc1cc(C)[nH]c(=O)c1CNC(=O)c1c(C)n([C@H](C)C2COC2)c2ccccc12", "note": "(single isomer, unassigned) [14 (isomer 1)]", "EC50": "10 to 100"}
{"compound": "CSc1cc(C)[nH]c(=O)c1CNC(=O)c1c(C)n([C@@H](C)C2COC2)c2ccccc12", "note": "(single isomer, unassigned) [14 (isomer 2)]", "EC50": "> 100"}
{"compound": "CSc1cc(C)[nH]c(=O)c1CNC(=O)c1c(C)n([C@H](C)C2CCC(N3CC(OC(F)F)C3)CC2)c2ccccc12", "note": "(single isomer, unassigned) [20 (isomer 1)]", "EC50": "< 10"}
{"compound": "CSc1cc(C)[nH]c(=O)c1CNC(=O)c1c(C)n([C@H](C)C2CCC(N3CC(OC(F)(F)F)C3)CC2)c2ccccc12", "note": "(single isomer, unassigned) [21 (isomer 1)]", "EC50": "< 10"}
{"compound": "CSc1cc(C)[nH]c(=O)c1CNC(=O)c1c(C)n([C@H](C)[C@H]2CC[C@H](N3CC(OC(F)F)C3)CC2)c2ncccc12", "note": "(single isomer, unassigned) [27 (isomer 1)]", "EC50": "< 10"}
{"compound": "CSc1cc(C)[nH]c(=O)c1CNC(=O)c1c(C)n([C@H](C)C2CCC(N3CC(OC4CC4)C3)CC2)c2ncc(F)cc12", "note": "(single isomer, unassigned) [28 (isomer 1)]", "EC50": "< 10"}
